According to patent US20160101194A1, “SMART® Medication Adherence Formulation, Method, Device and System for Topical, Vaginal or Rectal Routes of Administration” (University of Florida Research Foundation, Incorporated, priority 2013, published 2016):
One block for each compound: values may come before it.

Experiments:
[1] = 40 mg rectal in 3 mL HEC gel
Protocol: The entire contents of the syringe were applied rectally as a bolus. Breath acetone and 2-butanone levels were monitored throughout the experiment by delivering single full breath samples directly into the modified ESI source. Two baseline breath samples were taken immediately prior to application and then at 1-3 min intervals thereafter. The ESI source was operated in positive ion mode. A 0.2% NH4OH:water mobile phase was introduced into the source at a flow rate of 0.1 mL/min during sampling to produce ammonium adducts of the analytes of interest.

[2] = after oral dosing
Protocol: Data shown are mean±SD. *, P<0.05 for a given time point compared to time point 0 min. The arrow denotes time of capsule ingestion. Concentrations less than the level of 1.0 parts-per-billion (ppb) are noted as “<LOD”.

[3] = after vaginal administration with gel; cited from earlier work
[4] = Breath kinetics of exhaled d6-acetone after topical application of d8-isopropanol in carbomer gel; format: in vivo; details: 240 mg transdermal in carbomer gel, post application; maximum still not achieved
Protocol: 240 mg of d8-isopropanol was mixed with 3 mL of a carbomer-based aloe gel. This gel was applied to an approximately 20 cm^2 area of the inner left forearm and covered with a Tagaderm occlusive dressing. To further reduce the permeability of the dressing, the transparent section was covered with a small section of teldar polymer prior to use.
(§1) Following application or ingestion, d6-acetone and d7-isopropanol levels were monitored in exhaled breath samples using the LTQ-LCMS. Single full breath samples were administered directly into the modified ESI source at 5 min intervals for ˜4 hours. The ESI source was operated in positive ion mode.

[5] = Breath kinetics of exhaled d6-acetone after oral ingestion of d8-isopropanol; format: in vivo; details: post-ingestion
Protocol: Either 100 mg d8-isopropanol or 20 mg d8 isopropanol was delivered orally. For oral dosing, 100 or 20 mg of neat d8-isopropanol were placed in a size 4 licap and the licap was swallowed along with 60-100 mL of water. Following administration of d8-isopropanol, exhaled breath was monitored in real time for the presence of d6-acetone and d7-isopropanol using the Orbitrap LCMS.
as §1

Compound: CCC(C)O (stereo not shown) [2-butanol]
time to appearance of 2-butanone in breath [1]: 2 to 3 min
2-butanone concentration in breath [2]: 500-1,000 ppb

Compound: CCC(C)OC(C)=O (stereo not shown) [2-butyl acetate]
parent ester and metabolites observed in breath [3]: observed in breath

Compound: CCCC(C)OC(C)=O (stereo not shown) [2-pentyl acetate]
parent ester and metabolites observed in breath [3]: observed in breath

time to maximum concentration of d-6 acetone in exhaled breath [4]: > 200 min
time by which D6-acetone levels in exhaled breath began to level out ([5]; 20 mg oral): ≤ 15 min
time by which D6-acetone levels in exhaled breath began to level out ([5]; 100 mg oral): ≤ 15 min
Compound: [2H]OC([2H])(C([2H])([2H])[2H])C([2H])([2H])[2H] [d8-IPA, d8-isopropanol]
